In patent US20220009931A1, “NOVEL UREA 6,7-DIHYDRO-4H-PYRAZOLO[1,5-A]PYRAZINES ACTIVE AGAINST THE HEPATITIS B VIRUS (HBV)” (AICURIS GMBH & CO. KG, priority 2018, published 2022):

System: HBV
Details: Hepatitis B virus, HePAD38, 144 h, read-out: Cell Activity

| SMILES | EC50 [nM] |
| --- | --- |
| O=C(Nc1ccc(F)c(Cl)c1)N1CCn2nc(NC3CCOC3)cc2C1 (centres unmarked) [Example 1, N-(3-chloro-4-fluorophenyl)-2-[(oxolan-3-yl)amino]-4H,5H,6H,7H-pyrazolo[1,5-a]pyrazine-5-carboxamide] | 1000 to 10000 |
| O=C(Nc1ccc(F)c(Cl)c1)N1CCn2nc(NC3CCC(O)CC3)cc2C1 (centres unmarked) [Example 2, N-(3-chloro-4-fluorophenyl)-2-[(4-hydroxycyclohexyl)amino]-4H,5H,6H,7H-pyrazolo[1,5-a]pyrazine-5-carboxamide] | < 1000 |
| CC1Cn2nc(NC(=O)C3CCOC3)cc2CN1C(=O)Nc1ccc(F)c(Cl)c1 (centres unmarked) [Example 3, N-(3-chloro-4-fluorophenyl)-6-methyl-2-(oxolane-3-amido)-4H,5H,6H,7H-pyrazolo[1,5-a]pyrazine-5-carboxamide] | < 1000 |
| CC1Cn2nc(NCC3CCOC3)cc2CN1C(=O)Nc1ccc(F)c(Cl)c1 (centres unmarked) [Example 4] | 1000 to 10000 |
| CC(=O)Nc1cc2n(n1)CCN(C(=O)Nc1ccc(F)c(Cl)c1)C2 [Example 5, N-(3-chloro-4-fluorophenyl)-2-acetamido-4H,5H,6H,7H-pyrazolo[1,5-a]pyrazine-5-carboxamide] | < 1000 |
| O=C(Nc1ccc(F)c(Cl)c1)N1CCn2nc(NCC3CCOCC3)cc2C1 [Example 6, N-(3-chloro-4-fluorophenyl)-2-{[(oxan-4-yl)methyl]amino}-4H,5H,6H,7H-pyrazolo[1,5-a]pyrazine-5-carboxamide] | 1000 to 10000 |
| CC1Cn2nc(N)cc2CN1C(=O)Nc1ccc(F)c(Cl)c1 (centres unmarked) [Example 7, 2-amino-N-(3-chloro-4-fluorophenyl)-6-methyl-4H,5H,6H,7H-pyrazolo[1,5-a]pyrazine-5-carboxamide] | 1000 to 10000 |
| O=C(Nc1cc2n(n1)CCN(C(=O)Nc1ccc(F)c(Cl)c1)C2)C1CCOCC1 [Example 8, N-(3-chloro-4-fluorophenyl)-2-(oxane-4-amido)-4H,5H,6H,7H-pyrazolo[1,5-a]pyrazine-5-carboxamide] | < 1000 |
| O=C(Nc1cc2n(n1)CCN(C(=O)Nc1ccc(F)c(Cl)c1)C2)C1CCOC1 (centres unmarked) [Example 9, N-(3-chloro-4-fluorophenyl)-2-(oxolane-3-amido)-4H,5H,6H,7H-pyrazolo[1,5-a]pyrazine-5-carboxamide] | < 1000 |
| O=C(Nc1ccc(F)c(Cl)c1)N1CCn2nc(NCC3CCOC3)cc2C1 (centres unmarked) [Example 10, N-(3-chloro-4-fluorophenyl)-2-{[(oxolan-3-yl)methyl]amino}-4H,5H,6H,7H-pyrazolo[1,5-a]pyrazine-5-carboxamide] | 1000 to 10000 |
| COCC1(S(=O)(=O)Nc2cc3n(n2)CCN(C(=O)Nc2ccc(F)c(Cl)c2)C3)CC1 [Example 11, N-(3-chloro-4-fluorophenyl)-2-[1-(methoxymethyl)cyclopropanesulfonamido]-4H,5H,6H,7H-pyrazolo[1,5-a]pyrazine-5-carboxamide] | < 1000 |
| O=C(Nc1ccc(F)c(Cl)c1)N1CCn2nc(NS(=O)(=O)C3CC3)cc2C1 [Example 12, N-(3-chloro-4-fluorophenyl)-2-cyclopropanesulfonamido-4H,5H,6H,7H-pyrazolo[1,5-a]pyrazine-5-carboxamide] | < 1000 |
| O=C(Nc1ccc(F)c(Cl)c1)N1CCn2nc(NS(=O)(=O)C3(CO)CC3)cc2C1 [Example 13, N-(3-chloro-4-fluorophenyl)-2-[1-(hydroxymethyl)cyclopropanesulfonamido]-4H,5H,6H,7H-pyrazolo[1,5-a]pyrazine-5-carboxamide] | < 1000 |
| O=C(Nc1ccc(F)cc1)N1CCn2nc(NS(=O)(=O)C3(CO)CC3)cc2C1 [Example 14, N-(4-fluorophenyl)-2-[1-(hydroxymethyl)cyclopropanesulfonamido]-4H,5H,6H,7H-pyrazolo[1,5-a]pyrazine-5-carboxamide] | < 100000 |
| COCC1(CNc2cc3n(n2)CCN(C(=O)Nc2ccc(F)c(Cl)c2)C3)CC1 [Example 15, N-(3-chloro-4-fluorophenyl)-2-({[1-(methoxymethyl)cyclopropyl]methyl}amino)-4H,5H,6H,7H-pyrazolo[1,5-a]pyrazine-5-carboxamide] | < 1000 |
| O=C(Nc1ccc(F)c(Cl)c1)N1CCn2nc(NCC3CCCOC3)cc2C1 (centres unmarked) [Example 16, N-(3-chloro-4-fluorophenyl)-2-{[(oxan-3-yl)methyl]amino}-4H,5H,6H,7H-pyrazolo[1,5-a]pyrazine-5-carboxamide] | 1000 to 10000 |
| CC(C)(CO)CNc1cc2n(n1)CCN(C(=O)Nc1ccc(F)c(Cl)c1)C2 [Example 17, N-(3-chloro-4-fluorophenyl)-2-[(3-hydroxy-2,2-dimethylpropyl)amino]-4H,5H,6H,7H-pyrazolo[1,5-a]pyrazine-5-carboxamide] | < 1000 |
| COC1(CNc2cc3n(n2)CCN(C(=O)Nc2ccc(F)c(Cl)c2)C3)CCC1 [Example 18, N-(3-chloro-4-fluorophenyl)-2-{[(1-methoxycyclobutyl)methyl]amino}-4H,5H,6H,7H-pyrazolo[1,5-a]pyrazine-5-carboxamide] | < 1000 |

| SMILES | EC50 [nM] |
| --- | --- |
| COC1CCC(Nc2cc3n(n2)CCN(C(=O)Nc2ccc(F)c(Cl)c2)C3)CC1 (centres unmarked) [Example 19, N-(3-chloro-4-fluorophenyl)-2-[(4-methoxycyclohexyl)amino]-4H,5H,6H,7H-pyrazolo[1,5-a]pyrazine-5-carboxamide] | < 1000 |
| CC1(CNc2cc3n(n2)CCN(C(=O)Nc2ccc(F)c(Cl)c2)C3)CCOC1 (centres unmarked) [Example 20, N-(3-chloro-4-fluorophenyl)-2-{[(3-methyloxolan-3-yl)methyl]amino}-4H,5H,6H,7H-pyrazolo[1,5-a]pyrazine-5-carboxamide] | < 1000 |
| O=C(Nc1ccc(F)c(Cl)c1)N1CCn2nc(NCC3(CO)CCC3)cc2C1 [Example 21, N-(3-chloro-4-fluorophenyl)-2-({[1-(hydroxymethyl)cyclobutyl]methyl}amino)-4H,5H,6H,7H-pyrazolo[1,5-a]pyrazine-5-carboxamide] | < 1000 |
| CCC(C)(CO)CNc1cc2n(n1)CCN(C(=O)Nc1ccc(F)c(Cl)c1)C2 (centres unmarked) [Example 22, N-(3-chloro-4-fluorophenyl)-2-[(2-ethyl-3-hydroxy-2-methylpropyl)amino]-4H,5H,6H,7H-pyrazolo[1,5-a]pyrazine-5-carboxamide] | < 1000 |
| CC(CO)CNc1cc2n(n1)CCN(C(=O)Nc1ccc(F)c(Cl)c1)C2 (centres unmarked) [Example 23, N-(3-chloro-4-fluorophenyl)-2-[(3-hydroxy-2-methylpropyl)amino]-4H,5H,6H,7H-pyrazolo[1,5-a]pyrazine-5-carboxamide] | 1000 to 10000 |
| CC(C)OC1(CNc2cc3n(n2)CCN(C(=O)Nc2ccc(F)c(Cl)c2)C3)CCC1 [Example 24, N-(3-chloro-4-fluorophenyl)-2-({[1-(propan-2-yloxy)cyclobutyl]methyl}amino)-4H,5H,6H,7H-pyrazolo[1,5-a]pyrazine-5-carboxamide] | 1000 to 10000 |
| COC1(CNc2cc3n(n2)CCN(C(=O)Nc2ccc(F)c(Cl)c2)C3)CCOC1 (centres unmarked) [Example 25, N-(3-chloro-4-fluorophenyl)-2-{[(3-methoxyoxolan-3-yl)methyl]amino}-4H,5H,6H,7H-pyrazolo[1,5-a]pyrazine-5-carboxamide] | 1000 to 10000 |
| CC(Nc1cc2n(n1)CCN(C(=O)Nc1ccc(F)c(Cl)c1)C2)C1CCOC1 (centres unmarked) [Example 26, N-(3-chloro-4-fluorophenyl)-2-{[1-(oxolan-3-yl)ethyl]amino}-4H,5H,6H,7H-pyrazolo[1,5-a]pyrazine-5-carboxamide] | 1000 to 10000 |
| O=C(Nc1ccc(F)c(Cl)c1)N1CCn2nc(NC3(c4ccccc4)CC3)cc2C1 [Example 27, N-(3-chloro-4-fluorophenyl)-2-[(1-phenylcyclopropyl)amino]-4H,5H,6H,7H-pyrazolo[1,5-a]pyrazine-5-carboxamide] | < 1000 |
| O=C(Nc1cc2n(n1)CCN(C(=O)Nc1ccc(F)c(Cl)c1)C2)C1CCN(c2ccncc2)CC1 [Example 28, N-{5-[(3-chloro-4-fluorophenyl)carbamoyl]-4H,5H,6H,7H-pyrazolo[1,5-a]pyrazin-2-yl}-1-(pyridin-4-yl)piperidine-4-carboxamide] | < 1000 |
| O=C(Nc1cc2n(n1)CCN(C(=O)Nc1ccc(F)c(Cl)c1)C2)C1CCNC(C(F)(F)F)C1 (centres unmarked) [Example 29, N-{5-[(3-chloro-4-fluorophenyl)carbamoyl]-4H,5H,6H,7H-pyrazolo[1,5-a]pyrazin-2-yl}-2-(trifluoromethyl)piperidine-4-carboxamide] | < 1000 |
| COC(=O)N1CCC(C(=O)Nc2cc3n(n2)CCN(C(=O)Nc2ccc(F)c(Cl)c2)C3)CC1 [Example 30, methyl 4-({5-[(3-chloro-4-fluorophenyl)carbamoyl]-4H,5H,6H,7H-pyrazolo[1,5-a]pyrazin-2-yl}carbamoyl)piperidine-1-carboxylate] | < 1000 |
| O=C(Nc1cc2n(n1)CCN(C(=O)Nc1ccc(F)c(Cl)c1)C2)C1CCN(C2CC2)CC1 [Example 31, N-{5-[(3-chloro-4-fluorophenyl)carbamoyl]-4H,5H,6H,7H-pyrazolo[1,5-a]pyrazin-2-yl}-1-cyclopropylpiperidine-4-carboxamide] | < 1000 |
| O=C(Nc1ccc(F)c(Cl)c1)N1CCn2nc(NC3(CO)CCC3)cc2C1 [Example 32, N-(3-chloro-4-fluorophenyl)-2-{[1-(hydroxymethyl)cyclobutyl]amino}-4H,5H,6H,7H-pyrazolo[1,5-a]pyrazine-5-carboxamide] | < 1000 |
| O=C(Nc1ccc(F)c(Cl)c1)N1CCn2nc(NCC3(O)CCC3)cc2C1 [Example 33, N-(3-chloro-4-fluorophenyl)-2-{[(1-hydroxycyclobutyl)methyl]amino}-4H,5H,6H,7H-pyrazolo[1,5-a]pyrazine-5-carboxamide] | < 1000 |
| O=C(Nc1ccc(F)c(Cl)c1)N1CCn2nc(N[C@@H]3CCC[C@H](O)C3)cc2C1 [Example 34, N-(3-chloro-4-fluorophenyl)-2-{[(1R,3S)-3-hydroxycyclohexyl]amino}-4H,5H,6H,7H-pyrazolo[1,5-a]pyrazine-5-carboxamide] | 1000 to 10000 |
| O=C(Nc1ccc(F)c(Cl)c1)N1CCn2nc(N[C@H]3CC[C@H](O)CC3)cc2C1 [Example 35, N-(3-chloro-4-fluorophenyl)-2-{[(1r,4r)-4-hydroxycyclohexyl]amino}-4H,5H,6H,7H-pyrazolo[1,5-a]pyrazine-5-carboxamide] | 1000 to 10000 |
